Substitutions are numbered along the chain they refer to. “Also recorded” adds a separate entry of the source.

Experiment [1] concerns the target T1, GI A105V mutant protease (Norovirus, UniProt Q83883, A1205V).
T1 construct: plasmids expressing norovirus protease from GI.1 (M87661); expressed in transfected cells; host or cells: HEK293T
Nature of the experiment: Cell-based FRET assay, GI A105V protease. Also on record: species or system norovirus GI.1 (M87661). The text has this:
(§1) The generation of plasmids expressing norovirus protease from GI.1 (M87661), GII.4 (DQ658413), or GV (DQ285629) norovirus and FRET assay constructs has been described previously ([18]). The plasmids carrying GI, GII, and GV proteases with the A105V, I109V, or A105V/I109V mutation were generated from the wild-type (WT) protease constructs described above by the QuikChange site-directed mutagenesis method. Mutant MNV genomes for reverse genetics were generated by two-step PCR mutagenesis of the WT MNV genome (pT7 MNV 3RZ) construct as described previously ([27]). The primers used for generation of the plasmids are listed in Tables S1 and S2 in the supplemental material.
(§2) The YFP/CFP ratio was used to determine FRET efficiency, as described previously ([18], [40]). Briefly, HEK293T cells were plated into black 96-well cell culture microplates (Greiner Bio-One) at a density of 5 × 10^4 cells/well in 100 μl of DMEM containing 10% fetal bovine serum with or without various concentrations of rupintrivir and then incubated for 4 h in a CO2 incubator at 37°C. […] The plates were then analyzed on a SpectraMax i3 instrument in fluorescence mode, with excitation set at 434 nm and the reading emissions set at 477 nm (CFP) and 527 nm (YFP). The background fluorescence from wells transfected with pcDNA3.1 was determined and subtracted. […]

The subject of experiment [2] is GII mutant proteases. Nature of the experiment: Cell-based FRET assay, GII mutant proteases (A105V, I109V, A105V/I109V). Also on record: species or system norovirus GII.4 (DQ658413). The conditions noted are these: A105V/I109V vs GII WT, HEK293T cells.
Excerpt: as §1, §2

Experiment [3] addresses T2, GV WT protease (Norovirus, UniProt Q80J95).
T2 construct: plasmids expressing norovirus protease from GI.1 (M87661), GII.4 (DQ658413), or GV (DQ285629) norovirus; expressed in transfected cells; host or cells: HEK293T
T2 sequence (Q80J95 995-1177 limits assumed): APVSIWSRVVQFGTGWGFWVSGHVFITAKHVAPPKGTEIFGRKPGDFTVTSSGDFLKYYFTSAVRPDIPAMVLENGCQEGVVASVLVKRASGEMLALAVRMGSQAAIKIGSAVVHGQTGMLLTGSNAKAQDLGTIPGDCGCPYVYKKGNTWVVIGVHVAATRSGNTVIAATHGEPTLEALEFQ
Nature of the experiment: Cell-based FRET assay, GV WT protease. On the set-up: species or system murine norovirus (MNV) GV (DQ285629). The conditions noted are these: HEK293T cells, GV NS1/2-NS3 FRET substrate.
Excerpt: as §1, §2

The target in experiment [4] is T3, GV I109V mutant protease (Norovirus, UniProt Q80J95, I1103V).
T3 construct: plasmids expressing norovirus protease from GI.1 (M87661), GII.4 (DQ658413), or GV (DQ285629) norovirus; expressed in transfected cells; host or cells: HEK293T
T3 sequence (Q80J95 995-1177 I1103V): T2 sequence (Q80J95 995-1177 limits assumed) with I109V
The experiment can be described thus: Cell-based FRET assay, GV I109V protease. Also on record: species or system murine norovirus (MNV) GV (DQ285629).
Excerpt: as §1, §2

Experiment [5] concerns the target T4, GV A105V/I109V mutant protease (Norovirus, UniProt Q80J95, A1099V/I1103V).
T4 construct: plasmids expressing norovirus protease from GI.1 (M87661), GII.4 (DQ658413), or GV (DQ285629) norovirus; expressed in transfected cells; host or cells: HEK293T
T4 sequence (Q80J95 995-1177 A1099V/I1103V): T2 sequence (Q80J95 995-1177 limits assumed) with A105V, I109V
Nature of the experiment: Cell-based FRET assay, GV A105V/I109V protease. On the set-up: species or system murine norovirus (MNV) GV (DQ285629).
Excerpt: as §1, §2

For experiment [6], the target named is T5, MNV A105V/I109V protease (polyprotein) (Norovirus, UniProt Q80J95, A1099V/I1103V).
T5 construct: in vitro-transcribed MNV full-length capped RNA containing either the WT or mutant proteases; made in house; host or cells: rabbit reticulocyte lysate (Flexi system, Promega), in vitro translation
Nature of the experiment: In vitro translation, MNV polyprotein processing, A105V/I109V protease. As to conditions: 80 μM, rabbit reticulocyte lysate. Format: biochemical, murine norovirus. As to the method: FIG 4 Impact of rupintrivir resistance-conferring mutations on MNV polyprotein processing in vitro. In vitro translation reactions were programmed with equal quantities of in vitro-transcribed MNV full-length capped RNA containing either the WT or mutant proteases in the presence and absence of 80 μM rupintrivir. The [^35S]methionine-labeled products were subsequently analyzed by SDS-PAGE and phosphorimaging analysis. The percentage of fully processed NS3, determined on the basis of the expected molecular mass of the proteins, was calculated and expressed relative to the total amount of viral protein produced.
In vitro translation reactions were performed using a Flexi rabbit reticulocyte lysate system (Promega). The reaction mixtures were prepared according to the manufacturer's instructions as described for capped mRNAs and programmed with 1 μg of RNA per 25-μl reaction mixture. The reaction mixtures were incubated at 30°C for 90 min prior to the addition of an equal volume of SDS-PAGE sample buffer. Samples were subsequently resolved on a 12.5% SDS-polyacrylamide gel before exposure to a phosphorimager screen.

Experiment [7] has as its system HRV2 N165T/E3G or N165T/A103V. Also on record: method as in PMID 17908951. As to conditions: serial passage of HRV2 for 62 days; cited from earlier work.
[8] abbreviates: HEK293T cells, GV NS1/2-NS3 FRET substrate.

T1 sequence (Q83883 1101-1281 A1205V): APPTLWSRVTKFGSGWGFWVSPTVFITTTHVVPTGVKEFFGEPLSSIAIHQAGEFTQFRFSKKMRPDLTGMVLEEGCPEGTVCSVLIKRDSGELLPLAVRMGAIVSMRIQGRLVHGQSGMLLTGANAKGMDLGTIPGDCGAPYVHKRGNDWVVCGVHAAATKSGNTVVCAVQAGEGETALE

`CCOC(=O)/C=C/[C@H](C[C@@H]1CCNC1=O)NC(=O)[C@@H](CC(=O)[C@@H](NC(=O)c1cc(C)on1)C(C)C)Cc1ccc(F)cc1` [rupintrivir, Rupintrivir]: the IC50 amounted to 4200 ± 1100 nM in experiment [1] (HEK293T cells, GI NS1/2-NS3 FRET substrate); 1000 ± 100 nM in experiment [3]; 2700 ± 600 nM in experiment [4] (setting [8]); 2300 ± 300 nM in experiment [5] (setting [8]). Also, the entries for the “fold increase in IC50” value in experiment [1] (vs GI WT protease), in experiment [4] (vs GV WT protease) and in experiment [5] (vs GV WT protease) were 3.2 fold, 2.7 fold and 2.3 fold, respectively. For the same compound, the “effect of substitutions on the IC50” value in experiment [2] is recorded as “no measurable effect; also recorded: no significant differences”. In experiment [6], the “polyprotein processing (mature NS3)” value is on record as “still able to produce mature NS3”. The fold reduced susceptibility in experiment [7] was 5 fold.

The values above are taken from paper PMC5923142, “Selection and Characterization of Rupintrivir-Resistant Norwalk Virus Replicon Cells In Vitro” (Antimicrobial Agents and Chemotherapy, 2018).
